Assay results taken from patent US11370794B2, “Toll-like receptor antagonist compounds and methods of use” (Dynavax Technologies Corporation, priority 2016, dated 2022).

Experiments:
human TLR9 = molecular target: T1, human TLR9 (Homo sapiens, UniProt Q9NR96); experiment: Inhibition of human TLR9 in human B cells (IL-6 ELISA); format: cell-based; details: for IC50: human B cells, agonist 1018 ISS 1 μM, IL-6 readout, 48 hours, range about 0.01 to 10 μM, read-out: Human TLR9 IC50; for inhibits TLR9-dependent responses (in words): summary statement of the description
T1 construct: endogenous in cells; host or cells: primary human B cells (CD19 microbeads) from buffy coats of healthy donors
T1 sequence (Q9NR96 26-1032): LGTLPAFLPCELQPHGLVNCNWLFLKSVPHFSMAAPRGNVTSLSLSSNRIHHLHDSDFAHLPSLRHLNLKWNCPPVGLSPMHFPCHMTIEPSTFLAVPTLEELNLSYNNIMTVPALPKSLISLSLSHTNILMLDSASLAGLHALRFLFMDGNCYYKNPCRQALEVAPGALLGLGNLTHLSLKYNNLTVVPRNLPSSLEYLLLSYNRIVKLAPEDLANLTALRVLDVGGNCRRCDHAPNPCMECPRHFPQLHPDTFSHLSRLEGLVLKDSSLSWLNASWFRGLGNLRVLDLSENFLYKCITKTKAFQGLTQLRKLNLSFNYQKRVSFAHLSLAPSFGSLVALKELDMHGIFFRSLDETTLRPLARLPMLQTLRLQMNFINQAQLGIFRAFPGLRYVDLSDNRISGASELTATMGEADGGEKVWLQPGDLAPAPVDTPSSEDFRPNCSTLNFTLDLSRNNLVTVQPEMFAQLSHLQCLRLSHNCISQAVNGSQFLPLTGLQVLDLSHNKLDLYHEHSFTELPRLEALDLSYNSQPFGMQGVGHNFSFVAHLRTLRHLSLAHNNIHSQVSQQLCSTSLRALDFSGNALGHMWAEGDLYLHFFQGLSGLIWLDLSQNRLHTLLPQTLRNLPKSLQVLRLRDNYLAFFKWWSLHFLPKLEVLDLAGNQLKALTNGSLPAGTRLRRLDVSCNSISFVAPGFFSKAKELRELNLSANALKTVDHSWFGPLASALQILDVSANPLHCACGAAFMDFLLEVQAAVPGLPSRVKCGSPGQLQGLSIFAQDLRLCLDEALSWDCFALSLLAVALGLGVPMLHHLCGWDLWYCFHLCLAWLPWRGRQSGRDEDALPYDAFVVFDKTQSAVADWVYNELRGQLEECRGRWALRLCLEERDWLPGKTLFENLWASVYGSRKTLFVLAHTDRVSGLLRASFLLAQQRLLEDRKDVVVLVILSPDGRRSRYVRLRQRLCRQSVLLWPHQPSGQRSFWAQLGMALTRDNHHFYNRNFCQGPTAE
Procedure, shortened: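 Primary human B cells (CD19-isolated from donor buffy coats), ~300,000 per well, treated with compound (about 0.01–10 μM, some 0.001–30 μM) then 1 μM CpG oligonucleotide 1018 ISS. After 48 hours at 37° C, supernatant IL-6 measured by ELISA; IC50 from concentration-response of TLR9-dependent activity.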

human TLR7 = molecular target: T2, human TLR7 (Homo sapiens, UniProt Q9NYK1); experiment: Inhibition of human TLR7 in human plasmacytoid dendritic cells (interferon-alpha ELISA); format: cell-based; details: agonist heat inactivated influenza virus, 24 hours
T2 construct: Human plasmacytoid dendritic cells were plated into 96 well plates; endogenous in cells; host or cells: primary human plasmacytoid dendritic cells from buffy coats of healthy donors
T2 sequence (Q9NYK1 27-1049): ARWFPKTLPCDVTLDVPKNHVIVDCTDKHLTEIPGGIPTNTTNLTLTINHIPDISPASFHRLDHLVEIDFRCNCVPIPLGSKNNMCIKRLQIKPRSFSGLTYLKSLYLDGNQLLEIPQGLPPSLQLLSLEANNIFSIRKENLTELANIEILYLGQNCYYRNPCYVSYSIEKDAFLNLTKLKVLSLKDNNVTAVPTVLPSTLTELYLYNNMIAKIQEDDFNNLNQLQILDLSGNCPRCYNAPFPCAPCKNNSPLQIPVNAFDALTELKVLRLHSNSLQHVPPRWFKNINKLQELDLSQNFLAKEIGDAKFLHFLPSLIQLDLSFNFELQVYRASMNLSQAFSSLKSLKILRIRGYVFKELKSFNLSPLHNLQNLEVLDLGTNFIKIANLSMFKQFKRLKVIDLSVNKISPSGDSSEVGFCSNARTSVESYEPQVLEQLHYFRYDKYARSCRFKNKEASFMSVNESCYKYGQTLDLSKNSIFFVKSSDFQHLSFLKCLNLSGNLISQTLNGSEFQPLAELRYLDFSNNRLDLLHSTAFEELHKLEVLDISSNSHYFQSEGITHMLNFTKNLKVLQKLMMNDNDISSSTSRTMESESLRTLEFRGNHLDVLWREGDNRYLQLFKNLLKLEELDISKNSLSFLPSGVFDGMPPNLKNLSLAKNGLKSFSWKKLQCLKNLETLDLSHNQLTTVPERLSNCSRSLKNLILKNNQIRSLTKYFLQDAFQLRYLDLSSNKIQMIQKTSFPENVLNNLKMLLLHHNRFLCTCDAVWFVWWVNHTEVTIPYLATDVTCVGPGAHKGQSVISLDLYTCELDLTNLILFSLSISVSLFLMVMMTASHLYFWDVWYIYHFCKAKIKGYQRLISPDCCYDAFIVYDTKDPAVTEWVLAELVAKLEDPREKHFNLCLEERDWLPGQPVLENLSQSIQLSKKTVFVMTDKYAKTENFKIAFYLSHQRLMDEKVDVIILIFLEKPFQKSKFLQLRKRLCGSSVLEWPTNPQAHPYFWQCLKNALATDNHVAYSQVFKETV

`Cc1ccc(-n2nc3c(N4CCC(C(=O)NCC(C)(C)CNc5ccccc5)CC4)nnc(C)c3c2C)cc1` [2-1] showed an IC50 (human TLR9) of 4650 nM and an IC50 (human TLR7) of over 10000 nM.

`Cc1ccc(-n2nc3c(N4CCC(C(=O)NCCCN(C)Cc5ccccc5)CC4)nnc(C)c3c2C)cc1` [Compound No. 1, N-(3-(benzyl(methyl)amino)propyl)-1-(3,4-dimethyl-2-(p-tolyl)-2H-pyrazolo[3,4-d]pyridazin-7-yl)piperidine-4-carboxamide] was tested, and the IC50 (human TLR9) was 40 nM, the “inhibits TLR9-dependent responses (in words)” value (human TLR9) was “inhibit” and the IC50 (human TLR7) was 2970 nM.

`Cc1ccc(-n2nc3c(N4CCC(C(=O)N5CCN(Cc6ccccc6)CC5)CC4)nnc(C)c3c2C)cc1` [Compound No. 2, (4-benzylpiperazin-1-yl)(1-(3,4-dimethyl-2-(p-tolyl)-2H-pyrazolo[3,4-d]pyridazin-7-yl)piperidin-4-yl)methanone] was tested, and the IC50 (human TLR9) was 242 nM, the “inhibits TLR9-dependent responses (in words)” value (human TLR9) was “inhibit” and the IC50 (human TLR7) was 9930 nM.

`Cc1ccc(-n2nc3c(N4CCC(C(=O)NC5CN(C)C5)CC4)nnc(C)c3c2C)cc1` [Compound No. 3, 1-(3,4-dimethyl-2-(p-tolyl)-2H-pyrazolo[3,4-d]pyridazin-7-yl)-N-(1-methylazetidin-3-yl)piperidine-4-carboxamide] was tested, and the IC50 (human TLR9) was 143 nM.

In the case of `Cc1ccc(-n2nc3c(N4CCC(C(=O)NC5CN(Cc6ccccc6)C5)CC4)nnc(C)c3c2C)cc1` [Compound No. 4, N-(1-benzylazetidin-3-yl)-1-(3,4-dimethyl-2-(p-tolyl)-2H-pyrazolo[3,4-d]pyridazin-7-yl)piperidine-4-carboxamide], the IC50 (human TLR9) is reported as 93 nM, the “inhibits TLR9-dependent responses (in words)” value (human TLR9) is reported as “inhibit” and the IC50 (human TLR7) is reported as 3360 nM.

With `Cc1ccc(-n2nc3c(N4CCC(C(=O)NCCCN(C)C)CC4)nnc(C)c3c2C)cc1` [Compound No. 5, 1-(3,4-dimethyl-2-(p-tolyl)-2H-pyrazolo[3,4-d]pyridazin-7-yl)-N-(3-(dimethylamino)propyl)piperidine-4-carboxamide] the IC50 (human TLR9) was 40 nM, the “inhibits TLR9-dependent responses (in words)” value (human TLR9) was “inhibit” and the IC50 (human TLR7) was 2230 nM.

`Cc1ccc(-n2nc3c(N4CCC(C(=O)NCCCc5c[nH]cn5)CC4)nnc(C)c3c2C)cc1` [Compound No. 6, N-(3-(1H-imidazol-4-yl)propyl)-1-(3,4-dimethyl-2-(p-tolyl)-2H-pyrazolo[3,4-d]pyridazin-7-yl)piperidine-4-carboxamide] was tested, and the IC50 (human TLR9) was 154 nM and the IC50 (human TLR7) was over 10000 nM.

For `Cc1ccc(-n2nc3c(N4CCC(CCC(=O)NCCN(C)C)CC4)nnc(C)c3c2C)cc1` [Compound No. 9, 3-(1-(3,4-dimethyl-2-(p-tolyl)-2H-pyrazolo[3,4-d]pyridazin-7-yl)piperidin-4-yl)-N-(2-(dimethylamino)ethyl)propanamide], the IC50 (human TLR9) was 3 nM and the IC50 (human TLR7) was over 10000 nM.
